Reference: ChEMBL document CHEMBL6078723, “Novel steroidal β-carboline derivatives as promising antibacterial candidates against methicillin-resistant Staphylococcus aureus” (Eur J Med Chem, 2025)

How the values were obtained:
Type in all cases: functional
[1] = system: Staphylococcus aureus; experiment: Antibacterial activity against methicillin-resistant Staphylococcus aureus ATCC 33591
[2] = system: Staphylococcus aureus; experiment: Antibacterial activity against methicillin-resistant Staphylococcus aureus CGMCC1.12409
[3] = system: Staphylococcus aureus; experiment: Antibacterial activity against Staphylococcus aureus CGMCC1.8721
[4] = system: Staphylococcus aureus; experiment: Antibacterial activity against methicillin-resistant Staphylococcus aureus ATCC 43300
[5] = system: Staphylococcus aureus; experiment: Bactericidal activity against methicillin-resistant Staphylococcus aureus ATCC 33591 by CLSI based method
[6] = system: Staphylococcus aureus; experiment: Bactericidal activity against Staphylococcus aureus CGMCC1.8721 by CLSI based method
[7] = system: Staphylococcus aureus; experiment: Bactericidal activity against methicillin-resistant Staphylococcus aureus CGMCC1.12409 by CLSI based method
[8] = system: Staphylococcus aureus; experiment: Bactericidal activity against methicillin-resistant Staphylococcus aureus ATCC 43300 by CLSI based method

For `COc1ccc2[nH]c3c(CC[C@H](C)[C@H]4CC[C@H]5[C@@H]6[C@H](O)C[C@@H]7C[C@H](O)CC[C@]7(C)[C@H]6CC[C@]45C)[n+](Cc4ccccc4C)ccc3c2c1.[Br-]`, the MIC [1] was 16 µg/mL, the MIC [2] was 16 µg/mL and the MIC [3] was 16 µg/mL. It also gave an MIC [4] of 16 µg/mL.
In the case of `COc1ccc2[nH]c3c(CC[C@H](C)[C@H]4CC[C@H]5[C@@H]6[C@H](O)C[C@@H]7C[C@H](O)CC[C@]7(C)[C@H]6CC[C@]45C)[n+](Cc4cccc(Cl)c4)ccc3c2c1.[Br-]`, the MIC [1] is reported as 32 µg/mL, the MIC [2] is reported as 16 µg/mL and the MIC [3] is reported as 16 µg/mL. It also gave an MIC [4] of 16 µg/mL.
`CC[n+]1ccc2c([nH]c3ccc(OC)cc32)c1CC[C@H](C)[C@H]1CC[C@H]2[C@@H]3[C@H](O)C[C@@H]4C[C@H](O)CC[C@]4(C)[C@H]3C[C@H](O)[C@]12C.[Br-]` gave an MIC [1] of 16 µg/mL, an MIC [2] of 16 µg/mL and an MIC [3] of 16 µg/mL. The MIC [4] was 16 µg/mL.
In the case of `COc1ccc2[nH]c3c(CC[C@H](C)[C@H]4CC[C@H]5[C@@H]6[C@H](O)C[C@@H]7C[C@H](O)CC[C@]7(C)[C@H]6CC[C@]45C)[n+](Cc4ccc(Br)cc4)ccc3c2c1.[Br-]`, the MIC [1] is reported as 32 µg/mL, the MIC [2] is reported as 16 µg/mL and the MIC [3] is reported as 16 µg/mL. It also gave an MIC [4] of 16 µg/mL.
`CCC[n+]1ccc2c([nH]c3ccc(OC)cc32)c1CC[C@H](C)[C@H]1CC[C@H]2[C@@H]3[C@H](O)C[C@@H]4C[C@H](O)CC[C@]4(C)[C@H]3C[C@H](O)[C@]12C.[Br-]` showed an MIC [1] of 16 µg/mL, an MIC [2] of 16 µg/mL and an MIC [3] of 16 µg/mL. The MIC [4] was 16 µg/mL.
`CCCC[n+]1ccc2c([nH]c3ccc(OC)cc32)c1CC[C@H](C)[C@H]1CC[C@H]2[C@@H]3[C@H](O)C[C@@H]4C[C@H](O)CC[C@]4(C)[C@H]3C[C@H](O)[C@]12C.[Br-]` showed an MIC [1] of 16 µg/mL, an MIC [2] of 16 µg/mL and an MIC [3] of 16 µg/mL. For the same molecule, the MIC [4] was 16 µg/mL.
For `COc1ccc2[nH]c3c(CC[C@H](C)[C@H]4CC[C@H]5[C@@H]6[C@H](O)C[C@@H]7C[C@H](O)CC[C@]7(C)[C@H]6C[C@H](O)[C@]45C)[n+](Cc4ccccc4C)ccc3c2c1.[Br-]`, the MIC [1] was 4 µg/mL, the MBC [5] was 8 µg/mL and the MBC [6] was 1 µg/mL. It also gave an MBC [7] of 8 µg/mL, an MIC [2] of 4 µg/mL and an MIC [3] of 0.5 µg/mL. It also gave an MBC [8] of 4 µg/mL and an MIC [4] of 1 µg/mL.
In the case of `COc1ccc2[nH]c3c(CC[C@H](C)[C@H]4CC[C@H]5[C@@H]6[C@H](O)C[C@@H]7C[C@H](O)CC[C@]7(C)[C@H]6CC[C@]45C)[n+](Cc4ccc(C)cc4)ccc3c2c1.[Br-]`, the MIC [1] is reported as 16 µg/mL, the MIC [2] is reported as 16 µg/mL and the MIC [3] is reported as 16 µg/mL. For the same molecule, the MIC [4] was 16 µg/mL.
With `COc1ccc2[nH]c3c(CC[C@H](C)[C@H]4CC[C@H]5[C@@H]6[C@H](O)C[C@@H]7C[C@H](O)CC[C@]7(C)[C@H]6C[C@H](O)[C@]45C)[n+](Cc4ccccc4F)ccc3c2c1.[Br-]` the MIC [1] was 4 µg/mL, the MBC [5] was 4 µg/mL and the MBC [6] was 2 µg/mL. It also gave an MBC [7] of 4 µg/mL, an MIC [2] of 2 µg/mL and an MIC [3] of 1 µg/mL. For the same molecule, the MBC [8] was 2 µg/mL and the MIC [4] was 1 µg/mL.
With `COc1ccc(OC)c(C[n+]2ccc3c([nH]c4ccc(OC)cc43)c2CC[C@H](C)[C@H]2CC[C@H]3[C@@H]4[C@H](O)C[C@@H]5C[C@H](O)CC[C@]5(C)[C@H]4CC[C@]23C)c1.[Br-]` the MIC [1] was 8 µg/mL, the MIC [2] was 8 µg/mL and the MIC [3] was 4 µg/mL. For the same molecule, the MIC [4] was 8 µg/mL.
Work on `CCCC[n+]1ccc2c([nH]c3ccc(OC)cc32)c1CC[C@H](C)[C@H]1CC[C@H]2[C@@H]3[C@H](O)C[C@@H]4C[C@H](O)CC[C@]4(C)[C@H]3CC[C@]12C.[Br-]` yielded an MIC [1] of 4 µg/mL, an MBC [5] of 16 µg/mL and an MBC [6] of 2 µg/mL. It also gave an MBC [7] of 8 µg/mL, an MIC [2] of 4 µg/mL and an MIC [3] of 1 µg/mL. It also gave an MBC [8] of 8 µg/mL and an MIC [4] of 4 µg/mL.
Work on `COc1ccc2[nH]c3c(CC[C@H](C)[C@H]4CC[C@H]5[C@@H]6[C@H](O)C[C@@H]7C[C@H](O)CC[C@]7(C)[C@H]6C[C@H](O)[C@]45C)[n+](Cc4ccc(C)cc4)ccc3c2c1.[Br-]` yielded an MIC [1] of 4 µg/mL, an MBC [5] of 8 µg/mL and an MBC [6] of 1 µg/mL. The MBC [7] was 8 µg/mL, the MIC [2] was 4 µg/mL and the MIC [3] was 0.5 µg/mL. The MBC [8] was 2 µg/mL and the MIC [4] was 1 µg/mL.
`CC[n+]1ccc2c([nH]c3ccc(OC)cc32)c1CC[C@H](C)[C@H]1CC[C@H]2[C@@H]3CC[C@@H]4C[C@H](O)CC[C@]4(C)[C@H]3CC[C@]12C.[Br-]` showed an MIC [1] of 32 µg/mL, an MIC [2] of 16 µg/mL and an MIC [3] of 16 µg/mL. For the same molecule, the MIC [4] was 16 µg/mL.
Work on `COc1ccc2[nH]c3c(CC[C@H](C)[C@H]4CC[C@H]5[C@@H]6[C@H](O)C[C@@H]7C[C@H](O)CC[C@]7(C)[C@H]6CC[C@]45C)[n+](Cc4ccc(F)cc4)ccc3c2c1.[Br-]` yielded an MIC [1] of 8 µg/mL, an MIC [2] of 4 µg/mL and an MIC [3] of 4 µg/mL. For the same molecule, the MIC [4] was 4 µg/mL.
For `COc1ccc2[nH]c3c(CC[C@H](C)[C@H]4CC[C@H]5[C@@H]6[C@H](O)C[C@@H]7C[C@H](O)CC[C@]7(C)[C@H]6CC[C@]45C)[n+](Cc4ccc(OC(F)(F)F)cc4)ccc3c2c1.[Br-]`, the MIC [1] was 16 µg/mL, the MIC [2] was 16 µg/mL and the MIC [3] was 16 µg/mL. For the same molecule, the MIC [4] was 16 µg/mL.
`CCCCC[n+]1ccc2c([nH]c3ccc(OC)cc32)c1CC[C@H](C)[C@H]1CC[C@H]2[C@@H]3[C@H](O)C[C@@H]4C[C@H](O)CC[C@]4(C)[C@H]3CC[C@]12C.[Br-]` was tested, and the MIC [1] was 16 µg/mL, the MIC [2] was 16 µg/mL and the MIC [3] was 8 µg/mL. It also gave an MIC [4] of 16 µg/mL.
`COc1ccc2[nH]c3c(CC[C@H](C)[C@H]4CC[C@H]5[C@@H]6CC[C@@H]7C[C@H](O)CC[C@]7(C)[C@H]6CC[C@]45C)[n+](Cc4ccc(OC(F)(F)F)cc4)ccc3c2c1.[Br-]` was tested, and the MIC [1] was 32 µg/mL, the MIC [2] was 16 µg/mL and the MIC [3] was 16 µg/mL. The MIC [4] was 16 µg/mL.
Work on `COc1ccc2[nH]c3c(CC[C@H](C)[C@H]4CC[C@H]5[C@@H]6[C@H](O)C[C@@H]7C[C@H](O)CC[C@]7(C)[C@H]6CC[C@]45C)[n+](Cc4ccccc4F)ccc3c2c1.[Br-]` yielded an MIC [1] of 8 µg/mL, an MIC [2] of 8 µg/mL and an MIC [3] of 4 µg/mL. The MIC [4] was 4 µg/mL.
Work on `COc1ccc2[nH]c3c(CC[C@H](C)[C@H]4CC[C@H]5[C@@H]6CC[C@@H]7C[C@H](O)CC[C@]7(C)[C@H]6CC[C@]45C)[n+](Cc4ccc(C(F)(F)F)cc4)ccc3c2c1.[Br-]` yielded an MIC [1] of 32 µg/mL, an MIC [2] of 16 µg/mL and an MIC [3] of 16 µg/mL. The MIC [4] was 16 µg/mL.
For `COc1cccc(C[n+]2ccc3c([nH]c4ccc(OC)cc43)c2CC[C@H](C)[C@H]2CC[C@H]3[C@@H]4[C@H](O)C[C@@H]5C[C@H](O)CC[C@]5(C)[C@H]4CC[C@]23C)c1.[Br-]`, the MIC [1] was 8 µg/mL, the MIC [2] was 8 µg/mL and the MIC [3] was 4 µg/mL. The MIC [4] was 8 µg/mL.
Molecule `COc1ccc2[nH]c3c(CC[C@H](C)[C@H]4CC[C@H]5[C@@H]6[C@H](O)C[C@@H]7C[C@H](O)CC[C@]7(C)[C@H]6CC[C@]45C)[n+](Cc4cccc(F)c4)ccc3c2c1.[Br-]` has an MIC [1] of 8 µg/mL, an MIC [2] of 8 µg/mL and an MIC [3] of 4 µg/mL. The MIC [4] was 8 µg/mL.
